Where two headings read alike, the source gives them in different places.
How the values were obtained:
[1] = Average score of NAC and NAL depletion and prediction of skin allergenicity, fluorescence method; details: for Average score: test substance solution 1 mmol/L
Summary of the method: (§1)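 Score is the mean of NAC and NAL depletion percentages, rounded at the second decimal place. Test substances classed as allergenic (S) or non-allergenic (NS) from depletion of NAC, NAL, or their average score.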

[2] = NAC depletion percent, HPLC-fluorescence detection; details: single substance, test substance solution 1 mmol/L, fluorescence method
Summary of the method: (§2)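 NAC at 5 μmol/L in pH 8.0 phosphate buffer reacted with test substance (1 mmol/L stock in water, acetonitrile, acetone or 5% DMSO/acetonitrile) 24 h at 25 °C in the dark, n=3. Stopped with TFA (0.5% final); unreacted NAC quantified by HPLC, depletion percent calculated against blank without test substance.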

[3] = NAL depletion percent, HPLC-fluorescence detection; details: single substance, test substance solution 1 mmol/L, fluorescence method
Summary of the method: (§3)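 NAL (5 μmol/L, pH 10.2 phosphate buffer) reacted with test substance (1 mmol/L stock in water, acetonitrile, acetone or 5% DMSO/acetonitrile) for 24 h at 25 °C in the dark; stopped with TFA to 0.5%. Unreacted NAL quantified by HPLC (UV or fluorescence), n=3; depletion % relative to substance-free blank.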

[4] = NAL depletion percent, HPLC-UV detection (281 nm); details: single substance, test substance solution 1 mmol/L, Reference (UV method)
Summary of the method: as §3

[5] = NAC depletion percent, HPLC-UV detection (281 nm); details: single substance, test substance solution 1 mmol/L, Reference (UV method)
Summary of the method: as §2

[6] = cited from earlier work
[7] = Average score of NAC and NAL depletion and prediction of skin allergenicity, UV method; details: for Average score: test substance solution 1 mmol/L
Summary of the method: as §1

[8] = single substance, fluorescence method, criterion average score […]
[9] = single substance, fluorescence method
[10] = known values, LLNA-test-based classification, − for non-allergenic substances
[11] = single substance, Reference (UV method), criterion average score […]
[12] = single substance, Reference (UV method)

What does the source list for O=CCCCC=O [Glutaraldehyde]?
Prediction result [1, 8]: S (S represents as being an allergenic substance); Average score [1, 9]: 23.7%; NAC depletion (%) [2]: 0.0%; NAL depletion (%) [3]: 47.4%; NAL depletion (%) [4]: 53.1%; NAC depletion (%) [5]: 0.8%; EC3 (%) [6, 10]: 0.1%; Prediction result [7, 11]: S (S represents as being an allergenic substance); Average score [7, 12]: 26.9%

With O=c1[nH]sc2ccccc12 [1,2-Benzisothiazolin-3-one] as the molecule, how does the Prediction result [1] read?
Its Prediction result is “S (key: S represents as being an allergenic substance; NS represents as being a non-allergenic substance)”.

What about the Average score [1, 9] of the same molecule?
The Average score was 49.5%.

What about the “NAC depletion (%)” value [2] of the same molecule?
The value was 98.8%.

What about the “NAL depletion (%)” value [3] of the same molecule?
The value was 0.2%.

And the “NAL depletion (%)” value [4]?
Its value is 0.4%.

What about the “NAC depletion (%)” value [5] of the same molecule?
Its value is 100.0%.

And the “EC3 (%)” value ([6]; in vivo)?
Its value is 2.3%.

What about the Prediction result [7] of the same molecule?
The Prediction result was “S (key: S represents as being an allergenic substance; NS represents as being a non-allergenic substance)”.

What about the Average score [7, 12] of the same molecule?
Its Average score is 50.2%.

What does the source list for CCCOC(=O)c1cc(O)c(O)c(O)c1 [Propyl gallate]?
Prediction result [1, 8]: S (S represents as being an allergenic substance); Average score [1, 9]: 82.6%; NAC depletion (%) [2]: 100.0%; NAL depletion (%) [3]: 65.3%; NAL depletion (%) [4]: 56.4%; NAC depletion (%) [5]: 97.1%; EC3 (%) [6, 10]: 0.32%; Prediction result [7, 11]: S (S represents as being an allergenic substance); Average score [7, 12]: 76.7%

Which Prediction result [1, 8] does the source give for C=CC(=O)OCC [Ethyl acrylate] here?
The Prediction result was “S (S represents as being an allergenic substance)”.

And the Average score [1, 9]?
The Average score was 49.6%.

And the “NAC depletion (%)” value [2]?
The value was 88.7%.

And the “NAL depletion (%)” value [3]?
The value was 10.6%.

What about the “NAL depletion (%)” value [4] of the same molecule?
The value was 13.7%.

What about the “NAC depletion (%)” value [5] of the same molecule?
The value was 87.8%.

And the “EC3 (%)” value ([6]; in vivo)?
The value was 28%.

And the Prediction result [7, 11]?
The Prediction result was “S (S represents as being an allergenic substance)”.

What about the Average score [7, 12] of the same molecule?
The Average score was 50.8%.

With c1ccc(COOCc2ccccc2)cc1 [Benzyl peroxide] as the molecule, how does the Prediction result [1, 8] read?
The Prediction result was “S (S represents as being an allergenic substance)”.

What about the Average score [1, 9] of the same molecule?
Its Average score is 81.9%.

And the “NAC depletion (%)” value [2]?
The value was 100.0%.

And the “NAL depletion (%)” value [3]?
The value was 63.7%.

And the “NAL depletion (%)” value [4]?
The value was 50.6%.

And the “NAC depletion (%)” value [5]?
The value was 100.0%.

And the “EC3 (%)” value [6, 10]?
Its value is 0.004%.

What about the Prediction result [7, 11] of the same molecule?
Its Prediction result is “S (S represents as being an allergenic substance)”.

And the Average score [7, 12]?
Its Average score is 75.3%.

What does the source list for O=CC=Cc1ccccc1 [Cinnamaldehyde]?
Average score [1, 9]: 33.4%; NAC depletion (%) [2]: 54.1%; NAL depletion (%) [3]: 12.8%; NAL depletion (%) [4]: 13.1%; NAC depletion (%) [5]: 37.0%; EC3 (%) ([6]; in vivo): 3%; Average score [7, 12]: 25.0%

For CCCCCCC(C=O)=Cc1ccccc1 [α-Hexylcinnamaldehyde], which Prediction result [1, 8] is on record?
The Prediction result was “NS (NS represents as being a non-allergenic substance)”.

And the Average score [1, 9]?
The Average score was 0.0%.

And the “NAC depletion (%)” value [2]?
Its value is 0.0%.

And the “NAL depletion (%)” value [3]?
The value was 0.0%.

What about the “NAL depletion (%)” value [4] of the same molecule?
The value was 1.1%.

And the “NAC depletion (%)” value [5]?
The value was 0.0%.

What about the “EC3 (%)” value [6, 10] of the same molecule?
Its value is 11%.

And the Prediction result [7, 11]?
The Prediction result was “NS (NS represents as being a non-allergenic substance)”.

What about the Average score [7, 12] of the same molecule?
Its Average score is 0.6%.

What does the source list for O=C1OC(=O)c2ccccc21 [Phthalic anhydride]?
Prediction result [1, 8]: S (S represents as being an allergenic substance); Average score [1, 9]: 46.4%; NAC depletion (%) [2]: 0.3%; NAL depletion (%) [3]: 92.6%; NAL depletion (%) [4]: 96.9%; NAC depletion (%) [5]: 0.3%; EC3 (%) [6, 10]: 0.16%; Prediction result [7, 11]: S (S represents as being an allergenic substance); Average score [7, 12]: 48.6%

What does the source list for O=c1c(O)c(O)c1=O [Squaric acid]?
Average score [1, 9]: 0.5%; NAC depletion (%) [2]: 1.0%; NAL depletion (%) [3]: 0.1%; NAL depletion (%) [4]: 0.5%; NAC depletion (%) [5]: 0.8%; EC3 (%) ([6]; in vivo): 4.3%; Average score [7, 12]: 0.6%

Which Average score [1, 9] does the source give for Kathon CG here?
The Average score was 51.0%.

What about the “NAC depletion (%)” value [2] of the same molecule?
Its value is 100.0%.

And the “NAL depletion (%)” value [3]?
Its value is 2.0%.

What about the “NAL depletion (%)” value [4] of the same molecule?
Its value is −0.4%.

What about the “NAC depletion (%)” value [5] of the same molecule?
Its value is 100.0%.

And the “EC3 (%)” value ([6]; in vivo)?
Its value is 0.008%.

What about the Average score [7, 12] of the same molecule?
Its Average score is 49.8%.

Source: patent US20210181109A1 (FUJIFILM Corporation, priority 2018, published 2021)
